ChEMBL document CHEMBL5724914, “Linking interpersonal differences in gut microbiota composition and drug biotransformation activity” (2024)

assay: (§1) The drug is tested on Z-021 corresponding to metagenome with ENA study accession number: PRJEB37062 and ENA sample accession number: ERS12561820 for biotransformation under anaerobic condition. The drug concentrations were measured over 9 timepoints collected between 0 and 24 hours of incubation by liquid-chromatography-coupled mass spectrometry (LC–MS); details: 2 µM
Also: call rule not given here.

SMILES | Bacterial Biotransformation
COc1cc(C(=O)NCc2ccc(OCCN(C)C)cc2)cc(OC)c1OC [TRIMETHOBENZAMIDE] | Compound NOT metabolized
COc1ccc(C(CN(C)C)C2(O)CCCCC2)cc1 (stereo not given) [VENLAFAXINE] | Compound NOT metabolized

assay: (§2) The drug is tested on Z-019 corresponding to rat gut metagenome with ENA study accession number: PRJEB37062 and ENA sample accession number: ERS12561818 for biotransformation under anaerobic condition. The drug concentrations were measured over 9 timepoints collected between 0 and 24 hours of incubation by liquid-chromatography-coupled mass spectrometry (LC–MS); details: 2 µM

SMILES | Bacterial Biotransformation
COc1cc(C(=O)NCc2ccc(OCCN(C)C)cc2)cc(OC)c1OC [TRIMETHOBENZAMIDE] | Compound NOT metabolized
COc1ccc(C(CN(C)C)C2(O)CCCCC2)cc1 (stereo not given) [VENLAFAXINE] | Compound NOT metabolized

assay: as §2, with “on Z-018” for “on Z-019”, “to pig” for “to rat”, “number: ERS12561817” for “number: ERS12561818”; details: 2 µM

SMILES | Bacterial Biotransformation
COc1cc(C(=O)NCc2ccc(OCCN(C)C)cc2)cc(OC)c1OC [TRIMETHOBENZAMIDE] | Compound NOT metabolized
COc1ccc(C(CN(C)C)C2(O)CCCCC2)cc1 (stereo not given) [VENLAFAXINE] | Compound NOT metabolized

assay: as §2, with “on Z-017” for “on Z-019”, “to mouse” for “to rat”, “number: ERS12561816” for “number: ERS12561818”; details: 2 µM

SMILES | Bacterial Biotransformation
COc1cc(C(=O)NCc2ccc(OCCN(C)C)cc2)cc(OC)c1OC [TRIMETHOBENZAMIDE] | Compound NOT metabolized
COc1ccc(C(CN(C)C)C2(O)CCCCC2)cc1 (stereo not given) [VENLAFAXINE] | Compound NOT metabolized

assay: as §2, with “Z-014” for “Z-019”, “ERS12561814” for “ERS12561818”; details: 2 µM

SMILES | Bacterial Biotransformation
COc1cc(C(=O)NCc2ccc(OCCN(C)C)cc2)cc(OC)c1OC [TRIMETHOBENZAMIDE] | Compound NOT metabolized
COc1ccc(C(CN(C)C)C2(O)CCCCC2)cc1 (stereo not given) [VENLAFAXINE] | Compound NOT metabolized

assay: as §1, with “Z-010” for “Z-021”, “ERS12561810” for “ERS12561820”; details: 2 µM

SMILES | Bacterial Biotransformation
COc1cc(C(=O)NCc2ccc(OCCN(C)C)cc2)cc(OC)c1OC [TRIMETHOBENZAMIDE] | Compound NOT metabolized
COc1ccc(C(CN(C)C)C2(O)CCCCC2)cc1 (stereo not given) [VENLAFAXINE] | Compound NOT metabolized

assay: as §1, with “Z-005” for “Z-021”, “ERS12561805” for “ERS12561820”; details: 2 µM

SMILES | Bacterial Biotransformation
COc1cc(C(=O)NCc2ccc(OCCN(C)C)cc2)cc(OC)c1OC [TRIMETHOBENZAMIDE] | Compound NOT metabolized
COc1ccc(C(CN(C)C)C2(O)CCCCC2)cc1 (stereo not given) [VENLAFAXINE] | Compound NOT metabolized

assay: as §2, with “on Z-001” for “on Z-019”, “to mouse” for “to rat”, “number: ERS12561801” for “number: ERS12561818”; details: 2 µM

SMILES | Bacterial Biotransformation
COc1cc(C(=O)NCc2ccc(OCCN(C)C)cc2)cc(OC)c1OC [TRIMETHOBENZAMIDE] | Compound NOT metabolized
COc1ccc(C(CN(C)C)C2(O)CCCCC2)cc1 (stereo not given) [VENLAFAXINE] | Compound metabolized

assay: as §2, with “on WLS-170” for “on Z-019”, “to human” for “to rat”, “number: ERS12561762” for “number: ERS12561818”; details: 2 µM

SMILES | Bacterial Biotransformation
COc1cc(C(=O)NCc2ccc(OCCN(C)C)cc2)cc(OC)c1OC [TRIMETHOBENZAMIDE] | Compound NOT metabolized
COc1ccc(C(CN(C)C)C2(O)CCCCC2)cc1 (stereo not given) [VENLAFAXINE] | Compound NOT metabolized

assay: as §2, with “on WLS-090” for “on Z-019”, “to human” for “to rat”, “number: ERS12561753” for “number: ERS12561818”; details: 2 µM

SMILES | Bacterial Biotransformation
COc1cc(C(=O)NCc2ccc(OCCN(C)C)cc2)cc(OC)c1OC [TRIMETHOBENZAMIDE] | Compound NOT metabolized
COc1ccc(C(CN(C)C)C2(O)CCCCC2)cc1 (stereo not given) [VENLAFAXINE] | Compound NOT metabolized

assay: as §2, with “on WLS-086” for “on Z-019”, “to human” for “to rat”, “number: ERS12561752” for “number: ERS12561818”; details: 2 µM

SMILES | Bacterial Biotransformation
COc1cc(C(=O)NCc2ccc(OCCN(C)C)cc2)cc(OC)c1OC [TRIMETHOBENZAMIDE] | Compound NOT metabolized
COc1ccc(C(CN(C)C)C2(O)CCCCC2)cc1 (stereo not given) [VENLAFAXINE] | Compound NOT metabolized

assay: as §2, with “on WLS-082” for “on Z-019”, “to human” for “to rat”, “number: ERS12561751” for “number: ERS12561818”; details: 2 µM

SMILES | Bacterial Biotransformation
COc1cc(C(=O)NCc2ccc(OCCN(C)C)cc2)cc(OC)c1OC [TRIMETHOBENZAMIDE] | Compound NOT metabolized
COc1ccc(C(CN(C)C)C2(O)CCCCC2)cc1 (stereo not given) [VENLAFAXINE] | Compound NOT metabolized

assay: as §2, with “on WLS-039” for “on Z-019”, “to human” for “to rat”, “number: ERS12561746” for “number: ERS12561818”; details: 2 µM

SMILES | Bacterial Biotransformation
COc1cc(C(=O)NCc2ccc(OCCN(C)C)cc2)cc(OC)c1OC [TRIMETHOBENZAMIDE] | Compound NOT metabolized
COc1ccc(C(CN(C)C)C2(O)CCCCC2)cc1 (stereo not given) [VENLAFAXINE] | Compound NOT metabolized

assay: as §2, with “on WLS-027” for “on Z-019”, “to human” for “to rat”, “number: ERS12561744” for “number: ERS12561818”; details: 2 µM

SMILES | Bacterial Biotransformation
COc1cc(C(=O)NCc2ccc(OCCN(C)C)cc2)cc(OC)c1OC [TRIMETHOBENZAMIDE] | Compound NOT metabolized
COc1ccc(C(CN(C)C)C2(O)CCCCC2)cc1 (stereo not given) [VENLAFAXINE] | Compound NOT metabolized

details: human gut metagenome, 24 h, 2 µM

SMILES | Bacterial Biotransformation
COc1cc(C(=O)NCc2ccc(OCCN(C)C)cc2)cc(OC)c1OC [TRIMETHOBENZAMIDE] | Compound NOT metabolized
COc1ccc(C(CN(C)C)C2(O)CCCCC2)cc1 (stereo not given) [VENLAFAXINE] | Compound NOT metabolized

details: human gut metagenome, 24 h, 2 µM; remark: another data set of the same source

SMILES | Bacterial Biotransformation
COc1cc(C(=O)NCc2ccc(OCCN(C)C)cc2)cc(OC)c1OC [TRIMETHOBENZAMIDE] | Compound NOT metabolized
COc1ccc(C(CN(C)C)C2(O)CCCCC2)cc1 (stereo not given) [VENLAFAXINE] | Compound NOT metabolized

details: human gut metagenome, 24 h, 2 µM; remark: another data set of the same source

SMILES | Bacterial Biotransformation
COc1cc(C(=O)NCc2ccc(OCCN(C)C)cc2)cc(OC)c1OC [TRIMETHOBENZAMIDE] | Compound NOT metabolized
COc1ccc(C(CN(C)C)C2(O)CCCCC2)cc1 (stereo not given) [VENLAFAXINE] | Compound NOT metabolized

details: human gut metagenome, 24 h, 2 µM; remark: another data set of the same source

SMILES | Bacterial Biotransformation
COc1cc(C(=O)NCc2ccc(OCCN(C)C)cc2)cc(OC)c1OC [TRIMETHOBENZAMIDE] | Compound NOT metabolized
COc1ccc(C(CN(C)C)C2(O)CCCCC2)cc1 (stereo not given) [VENLAFAXINE] | Compound NOT metabolized

details: human gut metagenome, 24 h, 2 µM; remark: another data set of the same source

SMILES | Bacterial Biotransformation
COc1cc(C(=O)NCc2ccc(OCCN(C)C)cc2)cc(OC)c1OC [TRIMETHOBENZAMIDE] | Compound NOT metabolized
COc1ccc(C(CN(C)C)C2(O)CCCCC2)cc1 (stereo not given) [VENLAFAXINE] | Compound NOT metabolized

details: human gut metagenome, 24 h, 2 µM; remark: another data set of the same source

SMILES | Bacterial Biotransformation
COc1cc(C(=O)NCc2ccc(OCCN(C)C)cc2)cc(OC)c1OC [TRIMETHOBENZAMIDE] | Compound NOT metabolized
COc1ccc(C(CN(C)C)C2(O)CCCCC2)cc1 (stereo not given) [VENLAFAXINE] | Compound metabolized
